# Data: patent publication US7393865B2, “Sleep inducing compounds and methods relating thereto” (Neurocrine Biosciences, Inc., priority 2004, dated 2008)
# Biological target: T1, human H1 receptor (Homo sapiens, UniProt P35367)
# T1 construct: expressed in transfected cells; host or cells: CHO cells (crude membranes)
# Assay: Human histamine H1 receptor binding assay
# Settings: competition with 1.5 nM [pyridinyl-5-3H] Pyrilamine, crude membranes of CHO cells transfected with human H1 receptor; Ki from IC50 by Cheng-Prusoff
# Method: Compounds of the present invention may be evaluated for binding to the histamine H1 receptor by a standard binding assay. […] Pyrilamine (˜30 Ci/mmol, Amersham TRK608) in the presence of varying concentrations of competing ligand. Non-specific binding is determined in the presence of excess (1 μM) doxepin. Bound and free ligand are separated by rapid vacuum filtration using a Packard 96-well cell harvester onto UniFilter GF/C filter plates (PerkinElmer) that has been pretreated with 1% polyethyleneimine. The filter plates are then washed with 600 μl phosphate buffered saline containing 0.01% (v/v) Triton-X100. Bound radioligand is determined by scintillation counting using a TopCount-NXT (Packard). Binding data is analyzed by nonlinear, least-squares curve fitting algorithms using GraphPad Prism (GraphPad Software, Inc. San Diego, Calif.) or ActivityBase (IDBS, Guildford, Surrey, UK).
# T1 sequence (P35367 whole entry): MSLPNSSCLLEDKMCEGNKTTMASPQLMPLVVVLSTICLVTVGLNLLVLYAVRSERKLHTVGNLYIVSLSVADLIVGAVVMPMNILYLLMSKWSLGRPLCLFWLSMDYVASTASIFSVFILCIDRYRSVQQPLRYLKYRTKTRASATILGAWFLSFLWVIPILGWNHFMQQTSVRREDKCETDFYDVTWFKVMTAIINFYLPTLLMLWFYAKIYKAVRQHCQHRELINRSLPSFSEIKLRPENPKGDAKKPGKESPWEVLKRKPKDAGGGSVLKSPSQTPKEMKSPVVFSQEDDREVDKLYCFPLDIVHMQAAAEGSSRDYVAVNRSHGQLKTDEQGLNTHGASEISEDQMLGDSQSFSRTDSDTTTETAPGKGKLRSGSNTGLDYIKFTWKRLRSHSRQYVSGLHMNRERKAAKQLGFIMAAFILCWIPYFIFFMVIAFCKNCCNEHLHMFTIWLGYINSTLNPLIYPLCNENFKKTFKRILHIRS
row,Ki,Compound
1,≤ 1 µM,"CC(c1cscn1)c1c(CCN(C)C)sc2ccccc12 (stereo in doubt) [Compound 16-4, Dimethyl-{2-[3-((R)-1-thiazol-4-yl-ethyl)-benzo[b]thiophen-2-yl]-ethyl}-amine]"
2,≤ 1 µM,"CN(C)CCc1sc2ccccc2c1Cc1ccc(F)cc1 [Compound 3-2, {2-[3-(4-Fluoro-benzyl)-benzo[b]thiophen-2-yl]-ethyl}-dimethyl-amine]"
3,≤ 1 µM,"CN(C)CCc1sc2ccccc2c1C(C)(O)c1ccc(F)cc1 (stereo not shown) [Compound 3-3, 1-[2-(2-Dimethylamino-ethyl)-benzo[b]thiophen-3-yl]-1-(4-fluoro-phenyl)-ethanol]"
4,≤ 1 µM,"CC(c1ccc(F)cc1)c1c(CCN(C)C)sc2ccccc12 (stereo not shown) [Compound 3-4, (2-{3-[1-(4-Fluoro-phenyl)-ethyl]-benzo[b]thiophen-2-yl}-ethyl)-dimethyl-amine]"
5,≤ 1 µM,"Cc1ccc2c(C(C)c3ccccn3)c(CCN(C)C)sc2c1 (stereo not shown) [Compound 4-2, Dimethyl-{2-[6-methyl-3-(1-pyridin-2-yl-ethyl)-benzo[b]thiophen-2-yl]-ethyl}-amine]"
6,≤ 1 µM,"Cc1ccc2c([C@@H](C)c3ccccn3)c(CCN(C)C)sc2c1 [Compound 4-3, Dimethyl-{2-[6-methyl-3-((R)-1-pyridin-2-yl-ethyl)-benzo[b]thiophen-2-yl]-ethyl}-amine]"
7,≤ 1 µM,"C=C(c1ccccn1)c1c(CCN(C)C)sc2cc(C)ccc12 [Compound 4-6, Dimethyl-{2-[6-methyl-3-(1-pyridin-2-yl-vinyl)-benzo[b]thiophen-2-yl]-ethyl}-amine]"
8,≤ 1 µM,"Cc1ccnc(C(C)c2c(CCN(C)C)sc3ccccc23)c1 (stereo not shown) [Compound 5-3, Dimethyl-(2-{3-[1-(4-methyl-pyridin-2-yl)-ethyl]-benzo[b]thiophen-2-yl}-ethyl)-amine]"
9,≤ 1 µM,"CN(C)CCc1sc2ccccc2c1C(C)(O)c1ccccn1 (stereo not shown) [Compound 6-1, 1-[2-(2-Dimethylamino-ethyl)-benzo[b]thiophen-3-yl]-1-pyridin-2-yl-ethanol]"
10,≤ 1 µM,"C=C(c1ccccn1)c1c(CCN(C)C)sc2ccccc12 [Compound 6-2, Dimethyl-{2-[3-(1-pyridin-2-yl-vinyl)-benzo[b]thiophen-2-yl]-ethyl}-amine]"
11,≤ 1 µM,"CC(c1ccccn1)c1c(CCN(C)C)sc2ccccc12 (stereo not shown) [Compound 6-3, Dimethyl-{2-[3-(1-pyridin-2-yl-ethyl)-benzo[b]thiophen-2-yl]-ethyl}-amine]"
12,≤ 1 µM,"C=C(c1cccnc1)c1c(CCN(C)C)sc2ccccc12 [Compound 6-4, Dimethyl-{2-[3-(1-pyridin-3-yl-vinyl)-benzo[b]thiophen-2-yl]-ethyl}-amine]"
13,≤ 1 µM,"C=C(c1ccncc1)c1c(CCN(C)C)sc2ccccc12 [Compound 6-5, Dimethyl-{2-[3-(1-pyridin-4-yl-vinyl)-benzo[b]thiophen-2-yl]-ethyl}-amine]"
14,≤ 1 µM,"CC(c1ccncc1)c1c(CCN(C)C)sc2ccccc12 (stereo not shown) [Compound 6-7, Dimethyl-{2-[3-(1-pyridin-4-yl-ethyl)-benzo[b]thiophen-2-yl]-ethyl}-amine]"
15,≤ 1 µM,"COc1cccnc1C(C)c1c(CCN(C)C)sc2ccccc12 (stereo not shown) [Compound 6-10, Dimethyl-(2-{3-[1-(3-methoxy-pyridin-2-yl)-ethyl]-benzo[b]thiophen-2-yl}-ethyl)-amine]"
16,≤ 1 µM,"CC(c1ccc(F)cn1)c1c(CCN(C)C)sc2ccccc12 (stereo not shown) [Compound 7-3, (2-{3-[1-(5-Fluoro-pyridin-2-yl)-ethyl]-benzo[b]thiophen-2-yl}-ethyl)-dimethyl-amine]"
17,≤ 1 µM,"C[C@@H](c1ccc(F)cn1)c1c(CCN(C)C)sc2ccccc12 [Compound 7-4, (2-{3-[(R)-1-(5-Fluoro-pyridin-2-yl)-ethyl]-benzo[b]thiophen-2-yl}-ethyl)-dimethyl-amine]"
18,≤ 1 µM,"C[C@H](c1ccc(F)cn1)c1c(CCN(C)C)sc2ccccc12 [Compound 7-5, (2-{3-[(S)-1-(5-Fluoro-pyridin-2-yl)-ethyl]-benzo[b]thiophen-2-yl}-ethyl)-dimethyl-amine]"
19,≤ 1 µM,"CC(c1nccs1)c1c(CCN(C)C)sc2ccccc12 (stereo not shown) [Compound 8-3, Dimethyl-{2-[3-(1-thiazol-2-yl-ethyl)-benzo[b]thiophen-2-yl]-ethyl}-amine]"
20,≤ 1 µM,"CNCCc1sc2ccccc2c1C(C)c1ccccn1 (stereo not shown) [Compound 9-1, Methyl-{2-[3-(1-pyridin-2-yl-ethyl)-benzo[b]thiophen-2-yl]-ethyl}-amine]"
21,≤ 1 µM,"CCCN(C)CCc1sc2ccccc2c1C(C)c1ccccn1 (stereo not shown) [Compound 9-2, Methyl-propyl-{2-[3-(1-pyridin-2-yl-ethyl)-benzo[b]thiophen-2-yl]-ethyl}-amine]"
22,≤ 1 µM,"Cc1ccc(C(C)c2c(CCN(C)C)sc3ccccc23)cn1 (stereo not shown) [Compound 10-3, Dimethyl-(2-{3-[1-(6-methyl-pyridin-3-yl)-ethyl]-benzo[b]thiophen-2-yl}-ethyl)-amine]"

row,Ki,Compound
1,≤ 1 µM,"CC(c1cnccn1)c1c(CCN(C)C)sc2ccccc12 (stereo not shown) [Compound 11-2, Dimethyl-{2-[3-(1-pyrazin-2-yl-ethyl)-benzo[b]thiophen-2-yl]-ethyl}-amine]"
2,≤ 1 µM,"C[C@H](c1ccccn1)c1c(CCN(C)C)sc2ccccc12 [Compound 12-1, Dimethyl-{2-[3-((S)-1-pyridin-2-yl-ethyl)-benzo[b]thiophen-2-yl]-ethyl}-amine]"
3,≤ 1 µM,"C[C@@H](c1ccccn1)c1c(CCN(C)C)sc2ccccc12 [Compound 12-2, Dimethyl-{2-[3-((R)-1-pyridin-2-yl-ethyl)-benzo[b]thiophen-2-yl]-ethyl}-amine]"
4,≤ 1 µM,"CN(C)CCc1sc2ccccc2c1Cc1ccccn1 [Compound 13-3, Dimethyl-[2-(3-pyridin-2-ylmethyl-benzo[b]thiophen-2-yl)-ethyl]-amine]"
5,≤ 1 µM,"CN(C)CCc1sc2ccccc2c1Cc1cncnc1 [Compound 13-4, Dimethyl-[2-(3-pyrimidin-5-ylmethyl-benzo[b]thiophen-2-yl)-ethyl]-amine]"
6,≤ 1 µM,"CN(C)CCc1sc2ccccc2c1Cc1nccs1 [Compound 13-5, Dimethyl-[2-(3-thiazol-2-ylmethyl-benzo[b]thiophen-2-yl)-ethyl]-amine]"
7,≤ 1 µM,"CN(C)CCc1sc2ccccc2c1Cc1cscn1 [Compound 13-6, Dimethyl-[2-(3-thiazol-4-ylmethyl-benzo[b]thiophen-2-yl)-ethyl]-amine]"
8,≤ 1 µM,"COc1cccnc1Cc1c(CCN(C)C)sc2ccccc12 [Compound 13-7, {2-[3-(3-Methoxy-pyridin-2-ylmethyl)-benzo[b]thiophen-2-yl]-ethyl}-dimethyl-amine]"
9,≤ 1 µM,"CN(C)CCc1sc2ccccc2c1Cc1cccc(O)n1 [Compound 13-8, 6-[2-(2-Dimethylamino-ethyl)-benzo[b]thiophen-3-ylmethyl]-pyridin-2-ol]"
10,≤ 1 µM,"CN(C)CCc1sc2ccccc2c1Cc1cnccn1 [Compound 13-9, Dimethyl-[2-(3-pyrazin-2-ylmethyl-benzo[b]thiophen-2-yl)-ethyl]-amine]"
11,≤ 1 µM,"CN(C)CCc1sc2ccccc2c1Cc1cncn1C [Compound 13-11, Dimethyl-{2-[3-(3-methyl-3H-imidazol-4-ylmethyl)-benzo[b]thiophen-2-yl]-ethyl}-amine]"
12,≤ 1 µM,"CN(C)CCc1sc2ccccc2c1Cc1cnns1 [Compound 13-12, Dimethyl-[2-(3-[1,2,3]thiadiazol-5-ylmethyl-benzo[b]thiophen-2-yl)-ethyl]-amine]"
13,≤ 1 µM,"Cc1cc(Cc2c(CCN(C)C)sc3ccccc23)n(C)n1 [Compound 13-13, {2-[3-(2,5-Dimethyl-2H-pyrazol-3-ylmethyl)-benzo[b]thiophen-2-yl]-ethyl}-dimethyl-amine]"
14,≤ 1 µM,"CN(C)CCc1sc2ccccc2c1Cc1nn(C)cc1Cl [Compound 13-14, {2-[3-(4-Chloro-1-methyl-1H-pyrazol-3-ylmethyl)-benzo[b]thiophen-2-yl]-ethyl}-dimethyl-amine]"
15,≤ 1 µM,"CN(C)CCc1sc2ccccc2c1Cc1nccn1C [Compound 13-15, Dimethyl-{2-[3-(1-methyl-1H-imidazol-2-ylmethyl)-benzo[b]thiophen-2-yl]-ethyl}-amine]"
16,≤ 1 µM,"COc1cccc(C(C)c2c(CCN(C)C)sc3ccccc23)n1 (stereo not shown) [Compound 15-2, (2-{3-[1-(6-Methoxy-pyridin-2-yl)-ethyl]-benzo[b]thiophen-2-yl}-ethyl)-dimethyl-amine]"
17,≤ 1 µM,CC(c1cccc(F)n1)c1c(CCN(C)C)sc2ccccc12 (stereo not shown) [Compound 15-3]
18,≤ 1 µM,"COc1ncccc1C(C)c1c(CCN(C)C)sc2ccccc12 (stereo not shown) [Compound 15-4, Dimethyl-(2-{3-[1-(2-methoxy-pyridin-3-yl)-ethyl]-benzo[b]thiophen-2-yl}-ethyl)-amine]"
19,≤ 1 µM,"COc1ncccc1[C@@H](C)c1c(CCN(C)C)sc2ccccc12 [Compound 15-5, Dimethyl-(2-{3-[(R)-1-(2-methoxy-pyridin-3-yl)-ethyl]-benzo[b]thiophen-2-yl}-ethyl)-amine]"
20,≤ 1 µM,"COc1ncccc1[C@H](C)c1c(CCN(C)C)sc2ccccc12 [Compound 15-6, Dimethyl-(2-{3-[(S)-1-(2-methoxy-pyridin-3-yl)-ethyl]-benzo[b]thiophen-2-yl}-ethyl)-amine]"
21,≤ 1 µM,"CC(c1cccnc1F)c1c(CCN(C)C)sc2ccccc12 (stereo not shown) [Compound 15-7, Dimethyl-(2-{3-[1-(2-fluoro-pyridin-3-yl)-ethyl]-benzo[b]thiophen-2-yl}-ethyl)-amine]"
